Assay results: PubChem BioAssay AID1919009 (Molecular Pharmacology Branch, DTP, NCI, 2023)

System: K24384-001-R-PDC complex spheroid growth
Test: Anticancer human tumor K24384-001-R-PDC patient-derived pancreatic adenocarcinoma cell line growth inhibition [AhR]
Conditions: for IC50: curve of first compound; for viability, T/C: stronger effect = lower value
How it was run: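 Spheroids combined tumor cells with HUVEC endothelial cells and human MSCs as stroma. AhR antagonists were paired with standard or investigational drugs, each dosed in half-log steps down from near clinical Cmax, or from 10 microM where Cmax was unknown.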

[1] = second compound 0.1 µM, first compound 0.0316 µM
[2] = second compound 0.1 µM, first compound 0.1 µM
[3] = second compound 0.1 µM, first compound 0.316 µM
[4] = second compound 0.1 µM, first compound 1 µM
[5] = second compound 0.1 µM, first compound 3.16 µM
[6] = second compound 0.1 µM, first compound 10 µM
[7] = second compound 0.316 µM, first compound 0.0316 µM
[8] = second compound 0.316 µM, first compound 0.1 µM
[9] = second compound 0.316 µM, first compound 0.316 µM
[10] = second compound 0.316 µM, first compound 1 µM
[11] = second compound 0.316 µM, first compound 3.16 µM
[12] = second compound 0.316 µM, first compound 10 µM
[13] = second compound 1 µM, first compound 0.0316 µM
[14] = second compound 1 µM, first compound 0.1 µM
[15] = second compound 1 µM, first compound 0.316 µM
[16] = second compound 1 µM, first compound 1 µM
[17] = second compound 1 µM, first compound 3.16 µM
[18] = second compound 1 µM, first compound 10 µM
[19] = second compound 3.16 µM, first compound 0.0316 µM
[20] = second compound 3.16 µM, first compound 0.1 µM
[21] = second compound 3.16 µM, first compound 0.316 µM
[22] = second compound 3.16 µM, first compound 1 µM
[23] = second compound 3.16 µM, first compound 3.16 µM
[24] = second compound 3.16 µM, first compound 10 µM
[25] = second compound 10 µM, first compound 0.0316 µM
[26] = second compound 10 µM, first compound 0.1 µM
[27] = second compound 10 µM, first compound 0.316 µM
[28] = second compound 10 µM, first compound 1 µM
[29] = second compound 10 µM, first compound 3.16 µM
[30] = second compound 10 µM, first compound 10 µM
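Throughout, for viability, T/C: percent of DMSO vehicle-treated spheroid viability set as 100%.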

| SMILES | IC50 (second compound 0.1 µM) [nM] | IC50 (second compound 0.316 µM) [nM] | IC50 (second compound 1 µM) [nM] | IC50 (second compound 3.16 µM) [nM] | IC50 (second compound 10 µM) [nM] | viability, T/C [1] [%] | viability, T/C [2] [%] | viability, T/C [3] [%] | viability, T/C [4] [%] | viability, T/C [5] [%] | viability, T/C [6] [%] | viability, T/C [7] [%] | viability, T/C [8] [%] | viability, T/C [9] [%] | viability, T/C [10] [%] | viability, T/C [11] [%] | viability, T/C [12] [%] | viability, T/C [13] [%] | viability, T/C [14] [%] | viability, T/C [15] [%] | other results |
| --- | --- | --- | --- | --- | --- | --- | --- | --- | --- | --- | --- | --- | --- | --- | --- | --- | --- | --- | --- | --- | --- |
| CC(C)c1c(-c2ccccc2)nc2c(C#N)c[nH]n2c1=O + CC(CO)NC(=O)c1cc(-c2ccc(Cl)cc2)nn(-c2cnn(C)c2)c1=O | > 10000 | > 10000 | > 10000 | > 10000 | > 10000 | 118 | 122 | 76.2 | 99.7 | 92.2 | 80.8 | 116 | 107 | 89.4 | 96.8 | 73 | 78.3 | 92.7 | 80 | 94.2 | viability, T/C [16]: 64.7%; viability, T/C [17]: 72.1%; viability, T/C [18]: 72.8%; viability, T/C [19]: 63.2%; viability, T/C [20]: 75.1%; viability, T/C [21]: 79.8%; viability, T/C [22]: 64%; viability, T/C [23]: 68.7%; viability, T/C [24]: 63.5%; viability, T/C [25]: 77.5%; viability, T/C [26]: 74.4%; viability, T/C [27]: 62.5%; viability, T/C [28]: 60.6%; viability, T/C [29]: 52.3%; viability, T/C [30]: 61.6% |
| COc1ccc([C@@H](O)c2cc(-c3ncnc4cc(N5CCOCC5)ccc34)c(F)cc2Cl)nn1 + CC(CO)NC(=O)c1cc(-c2ccc(Cl)cc2)nn(-c2cnn(C)c2)c1=O | 7260 | 3900 | 2830 | 2920 | 1480 | 90.1 | 82.7 | 97.6 | 75.7 | 69.2 | 43 | 103 | 99.5 | 85.2 | 67.6 | 55.1 | 37 | 86.6 | 90 | 81.1 | viability, T/C [16]: 66.3%; viability, T/C [17]: 49%; viability, T/C [18]: 35.8%; viability, T/C [19]: 74.5%; viability, T/C [20]: 69.7%; viability, T/C [21]: 80.4%; viability, T/C [22]: 66%; viability, T/C [23]: 49.2%; viability, T/C [24]: 33.8%; viability, T/C [25]: 71.3%; viability, T/C [26]: 75.2%; viability, T/C [27]: 68.2%; viability, T/C [28]: 52.1%; viability, T/C [29]: 42.5%; viability, T/C [30]: 28.9% |
| COc1cccc2c1C(=O)c1c(O)c3c(c(O)c1C2=O)CC(O)(C(=O)CO)CC3OC1CC(N)C(O)C(C)O1 (stereo not given) + Cc1ccccc1N=Nc1ccc(NC(=O)c2ccnn2C)c(C)c1 | 68.9 | 54.7 | < 31.6 | < 31.6 | 50.4 | 57.9 | 45.7 | 22.5 | 7.05 | 3.16 | 7.56 | 53.7 | 46 | 19 | 8.11 | 2.84 | 8.04 | 42 | 42 | 12.8 | viability, T/C [16]: 7.59%; viability, T/C [17]: 2.46%; viability, T/C [18]: 8.88%; viability, T/C [19]: 47.6%; viability, T/C [20]: 40.1%; viability, T/C [21]: 14.3%; viability, T/C [22]: 2.98%; viability, T/C [23]: 6.7%; viability, T/C [24]: 6.51%; viability, T/C [25]: 55.9%; viability, T/C [26]: 41.3%; viability, T/C [27]: 9.04%; viability, T/C [28]: 8.14%; viability, T/C [29]: 3.61%; viability, T/C [30]: 9.36% |
